These results are taken from patent publication US20230174526A1, “BENZOTHIAZOLYL BIARYL COMPOUND, AND PREPARATION METHOD AND USE” (SHANGHAI RINGENE BIOPHARMA CO., LTD., priority 2020, published 2023).

For one assay, the target named is T1, KRAS^G12C/SOS1 (Homo sapiens, UniProt P01116, G12C).
T1 construct: purchased CisBio
The experiment in a line: KRAS^G12C/SOS1 protein-protein interaction Binding assay (CisBio kit). To be noted: class symbols. As to the method:
CisBio’s KRAS^G12C/SOS1 kit was used to test the efficacy of the compound on inhibiting the protein-protein interaction between SOS1 and KRAS^G12Cby Binding assay.Results were expressed as IC50values.
Test methods: (1) the test compound was tested at a concentration of 1000 nM. Diluted to 3-fold diluted compound of a 200-fold final concentration of 100% DMSO solution in a 384-well plate at 10 concentrations. 50 nL of 200-fold final concentration of compound was transferred to the destination plate 384 well plate using a dispenser Echo 550.50 nL of 100% DMSO was added to the negative control wells and positive control wells; (2) 4-fold final concentration of Tag1 SOS1 solution was prepared using Diluent buffer; (3) 2.5 µL of 4-fold final concentration of Tag1 SOS1 solution was added to the 384-well plate; (4) 4-fold final concentration of Tag2 KRAS^G12C solution was prepared using Diluent buffer; (5) 2.5 µL of 4-fold final concentration of Tag2 KRAS^G12C solution was added to compound wells and positive control wells, respectively; 2.5 µL of diluent buffer was added to negative control wells; (6) the 384-well plate was centrifuged at 1000 rpm for 30 seconds, shaken and mixed, and incubated at room temperature for 15 min; (7) 1-fold final concentration of Anti Tag1 TB3+ solution and 1-fold final concentration of Anti Tag2 XL665 solution were prepared with Detection buffer, and 5 µL of the mixture was added to each well after mixing the two solutions; (8) the 384-well plate was centrifuged at 1000 rpm for 30 seconds, shaken and mixed, and incubated at room temperature for 120 minutes; (9) the Envision enzyme marker was used to read
Em665/620; (10) data analysis, calculation formula; where Min signal is the mean value of negative control wells, Max signal is the mean value of positive control wells.The log value of concentration was used as the X-axis and the percentage inhibition as the Y-axis to fit the quantitative efficacy curve using the log(inhibitor) vs. response Variable slope of the quantitative efficacy curve of the analytical software GraphPad Prism 5 to derive the IC50 value of each compound on the enzyme activity.The fitting formula was: Y=Bottom+(Top Bottom)/(1+10^A((LogIC50X)^∗ HillSlope)).

Assay [1] concerns MiaPaca-2 cells (pancreatic cancer). The experiment in a line: Proliferation test method 1 (2D, MTT), MiaPaca-2. The assay is classed as cell-based. To be noted: 5-7 days, read-out: IC50/nM proliferation inhibitory activity on MiaPaca-2 cells. As to the method:
(§1) Test method 1 (2D):NCI-H358 (lung cancer) and MiaPaca-2 cells (pancreatic cancer) cells (100 µL/well, 20,000 cells/mL) were inoculated in 96-well culture plates supplemented with 10% fetal bovine serum and 1% penicillin/streptomycin sulfate, respectively.Using 0.5% dimethyl sulfoxide as a blank control, cells were treated with a solution of the compound to be tested at a starting concentration of 10 µM, tripled diluted testing solution of the compound in eight gradients were used to treat cells, and then incubated in a 5% CO2 incubator for a certain period of time (5-7 days).At the end of incubation, 10 µL of MTT stock solution (5 mg/mL) was added to each well.The culture plates were incubated at 37° C. for 4 h and then the medium was removed.Dimethyl sulfoxide (100 µL) was added to each well and then shaken sufficiently. The absorbance of the product formazanwas measured at 570 nm on the Thermo Scientific Varioskan Flash multimode reader.IC50 values were obtained by fitting dose-response data into a three-parameter nonlinear regression model using GraphPad Prism 6.0 software.

The test system of a further assay is NCI-H358 cells. The assay can be described thus: Proliferation test method 2 (3D, Cell Titer Glo 3D), NCI-H358. The assay is classed as cell-based. To be noted: Homo sapiens, NCI-H358, 96 h, read-out: IC50 cell proliferation inhibitory activity against NCI-H358. As to the method:
(§2) Test method 2 (3D): The tumor cells in the logarithmic growth phase were diluted with culture solution to a certain concentration and inoculated on the 96-well plate on the ultra-low attachment surface, and the culture medium was 80 µL/well. Cells were incubated overnight at 37° C. in a humidity chamber. On the second day, a series of diluted test compounds (10 concentrations, 3 times dilution) were added to the plate, 20 µL/well, incubated in an incubator for 96h.The plates are removed and placed at room temperature and incubated with an equal volume of Cell Titer Glo®3D reagent for 1 h. The signal is detected by the En Vision™ plate reader. […] A four-parameter nonlinear regression curve was fitted to the percent inhibition for each concentration of the compound and the IC50 was calculated.
On the technique in general: ATP-based viability assays read luminescence as a measure of living cells.

The next assay deals with MiaPaca-2 cells. The experiment in a line: Proliferation test method 2 (3D, Cell Titer Glo 3D), MiaPaca-2. The assay is classed as cell-based. The note with it: Homo sapiens, MIA PaCa-2, 96 h, read-out: IC50 cell proliferation inhibitory activity against MiaPaca-2. As to the method:
as §2

Assay [2] deals with NCI-H358 (lung cancer) cells. The experiment in a line: Proliferation test method 1 (2D, MTT), NCI-H358. In kind it is cell-based. The note with it: Homo sapiens, 5-7 days, read-out: IC50 proliferation inhibitory activity against NCI-H358. As to the method:
as §1

Assay [3] deals with phosphorylated ERK levels of NCI-H358. The assay can be described thus: ERK phosphorylation (western blot), H358. In kind it is cell-based. The note with it: Homo sapiens, 3 h. As to the method:
(§3) Test method 3 (ERK phosphorylation): Miapaca-2 or H358 cells were inoculated at certain concentrations in 96-well plates and incubated overnight at 37° C., 5% CO2 in a cell culture incubator, and serial dilutions of the test compound (5 concentrations, 3-fold dilution) were added to the plates the next day for 24 h (Miapaca-2) or 3 h (H358), then lysis solution containing protease and phosphatase inhibitor were added to lyse the cells to extract proteins and western blot method was used to detect the level of p-ERK.
Background: In western blotting, separated proteins are transferred to a membrane and probed.

For assay [4], the system named is phosphorylated ERK levels of MiaPaca-2. The assay can be described thus: ERK phosphorylation (western blot), MiaPaca-2. The assay is classed as cell-based. To be noted: Homo sapiens, MIA PaCa-2, 24 h. As for the experimental part:
as §3

Read-outs that look alike come from different tables or passages of the source.

T1 sequence (P01116 1-188 isoform P01116-2 G12C): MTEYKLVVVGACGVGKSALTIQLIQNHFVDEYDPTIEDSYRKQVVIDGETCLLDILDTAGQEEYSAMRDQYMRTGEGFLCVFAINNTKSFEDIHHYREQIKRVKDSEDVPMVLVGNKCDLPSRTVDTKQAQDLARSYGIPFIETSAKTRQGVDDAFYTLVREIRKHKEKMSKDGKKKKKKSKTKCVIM

Turning to `C=C(F)C(=O)N1C[C@@H]2C(=O)N(C)c3cnc4c(F)c(-c5ccc(F)c6sc(N)nc56)c(Cl)cc4c3N2C[C@H]1C` [Example 28, (2R,4aR)-10-(2-Amino-7-Fluorobenzo[d]Thiazol-4-yl)-11-Chloro-9-Fluoro-3-(2-Fluoroacryloyl)-2,6-Dimethyl-2,3,4,4a-Tetrahydro-1H-Pyrazin [1′,2′:4,5] Pyrazin [2,3-c] Quinolin-5(6H)-one], the IC50 is 50 to 200 nM at KRAS^G12C/SOS1 and 63.2 nM in assay [1] (Homo sapiens, MIA PaCa-2, 2D).
On to `C=CC(=O)N1CCN(c2c(C#N)c(Cl)nc3c(F)c(-c4ccc(F)c5sc(N)nc45)c(Cl)cc23)CC1` [Example 7], for which the IC50 is 50 to 200 nM at KRAS^G12C/SOS1 and 23.1 nM in assay [1] (Homo sapiens, MIA PaCa-2, 2D).
As for `C=CC(=O)N1CCN(c2c(C#N)cnc3c(F)c(-c4ccc(F)c5sc(N)nc45)c(Cl)cc23)CC1CC#N` (centres unmarked) [Example 15, 4-(4-Acryloyl-3-(Cyanomethyl) Piperazin-1-yl)-7-(2-Amino-7-Fluorobenzo [d] Thiazol-4-yl)-6-Chloro-8-Fluoroquinolin-3-Cyano], the IC50 is 200 to 1000 nM at KRAS^G12C/SOS1 and 390 nM in assay [1] (Homo sapiens, MIA PaCa-2, 2D).
For the compound `C=CC(=O)N1CCN(c2nc(NC[C@@H]3CCCN3C)nc3c(F)c(-c4ccc(F)c5sc(N)nc45)c(Cl)cc23)CC1` [Example 2, 1-(4-(7-(2-Amino-7-Fluorobenzo[d]Thiazol-4-yl)-6-Chloro-8-Fluoro-2-((((S)-1-Methylpyrrolidin-2-yl)Methyl)Amino)Quinazolin-4-yl)Piperazin-1-yl)Prop-2-En-1-One], the IC50 was under 50 nM on KRAS^G12C/SOS1; 13.2 nM in assay [1] (Homo sapiens, MIA PaCa-2, 2D); under 200 nM in the assay with NCI-H358 cells; under 200 nM in the assay on MiaPaca-2 cells.
Consider `C=CC(=O)N1CCN(c2c(C#N)c(NC[C@@H]3CCCN3C)nc3c(F)c(-c4ccc(F)c5sc(N)nc45)c(Cl)cc23)CC1` [Example 4, 4-(4-Piperazinylacryloylpiperazin-1-yl)-7-(2-Amino-7-Fluorobenzo[d]Thiazol-4-Yl)-6-Chloro-8-Fluoro-2-((((S)-1-Methylpyrrolin-2-yl)Methyl)Amino)Quinoline-3-Cyano], for which the IC50 at KRAS^G12C/SOS1 was under 50 nM; in assay [1] (Homo sapiens, MIA PaCa-2, 2D) it was 1.1 nM.
As to `C=CC(=O)N1CCN(c2c(C#N)c(NCCC(=O)N(C)C)nc3c(F)c(-c4ccc(F)c5sc(N)nc45)c(Cl)cc23)CC1` [Example 22, 3-((4-(4-Acryloylpiperazin-1-yl)-7-(2-Amino-7-Fluorobenzo [d] Thiazol-4-yl)-6-Chloro-3-Cyano-8-Fluoroquinolin-2-yl) Amino)-N,N-Dimethylpropanamide], the IC50 was 50 to 200 nM at KRAS^G12C/SOS1 and 0.93 nM in assay [1] (Homo sapiens, MIA PaCa-2, 2D).
With `C=CC(=O)N1C[C@@H]2C(=O)N(C)c3cnc4c(F)c(-c5ccc(F)c6sc(N)nc56)c(Cl)cc4c3N2C[C@H]1C` (single isomer, unassigned) [Example 17-2], the IC50 in assay [1] (2D) was determined as 23.1 nM.
Regarding `C=CC(=O)N1CCN(c2nc(NCCC(=O)N(C)C)nc3c(F)c(-c4ccc(F)c5sc(N)nc45)c(Cl)cc23)CC1` [Example 19, 3-((4-(4-Acryloylpiperazin-1-yl)-7-(2-Amino-7-Fluorobenzo [d] Thiazol-4-yl)-6-Chloro-8-Fluoroquinazolin-2-yl) Amino)-N,N-Dimethylpropanamide], the IC50 at KRAS^G12C/SOS1 was 50 to 200 nM; in assay [1] (Homo sapiens, MIA PaCa-2, 2D), 28 nM.
As to `C=CC(=O)N1CCN(c2c(C#N)cnc3c(F)c(-c4ccc(F)c5sc(N)nc45)c(Cl)cc23)C[C@H]1C` [Example 16, 4-((R)-4-Acryloyl-3-Methylpiperazin-1-yl)-7-(2-Amino-7-Fluorobenzo [d] Thiazol-4-yl)-6-Chloro-8-Fluoroquinolin-3 -Cyano], the IC50 on KRAS^G12C/SOS1 was 50 to 200 nM; in assay [2] it was under 100 nM; in the assay on NCI-H358 cells it was under 200 nM; in the assay with MiaPaca-2 cells, under 200 nM; in assay [3], under 500 nM; in assay [4], under 500 nM.
As to `C=CC(=O)N1CCN(c2nc(OC[C@@H]3C[C@H](F)CN3C)nc3c(F)c(-c4ccc(F)c5sc(N)nc45)c(Cl)cc23)CC1` [Example 25], the IC50 at KRAS^G12C/SOS1 is under 50 nM; in assay [2], under 100 nM; in assay [3] it was under 500 nM; in assay [4], under 500 nM.
On to `C=CC(=O)N1CCN(c2nc(Cl)nc3c(F)c(-c4ccc(F)c5sc(N)nc45)c(Cl)cc23)CC1` [Example 6, 1-(4-(7-(2-Amino-7-Fluorobenzo [d] Thiazol-4-yl)-2,6-Dichloro-8-Fluoroquinazolin-4-yl) Piperazin-1-yl) Prop-2-Ene-1-One], for which the IC50 on KRAS^G12C/SOS1 is 50 to 200 nM; in assay [1] (Homo sapiens, MIA PaCa-2, 2D) it was 35 nM.
The matching figures for `C=C(F)C(=O)N1CCN(c2c(C#N)cnc3c(F)c(-c4ccc(F)c5sc(N)nc45)c(Cl)cc23)CC1` [Example 9, 7-(2-Amino-7-Fluorobenzo [d] Thiazol-4-yl) -6-Chloro-8-Fluoro-4-(4-(2-Fluoroacryloyl) Piperazin-1-yl) Quinolin-3-Cyano]: 50 to 200 nM and 362 nM.
Turning to `C=CC(=O)N1CCN(c2nc(OC[C@@H]3C[C@@H](O)CN3C)nc3c(F)c(-c4ccc(F)c5sc(N)nc45)c(Cl)cc23)CC1` [Example 24, 1-(4-(7-(2-Amino-7-Fluorobenzo[d]Thiazol-4-yl)-6-Chloro-8-Fluoro-2-(((2S,4R)-4-Hydroxy-1-Methylpyrrolin-2-yl) Methoxy) Quinazolin-4-yl) Piperazin-1-yl) Prop-2-En-1-One], the IC50 at KRAS^G12C/SOS1 was under 50 nM; in assay [1] (Homo sapiens, MIA PaCa-2, 2D), under 1 nM.
The matching figures for `C=CC(=O)N1CCN(c2nc(OC[C@@H]3CCCN3C)nc3c(F)c(-c4ccc(F)c5sc(N)nc45)c(Cl)cc23)CC1CC#N` (stereo partly drawn) [Example 12, 2-(1-acryloyl-4-(7-(2-Amino-7-Fluorobenzo [d] Thiazol-4-yl) -6-Chloro-8-Fluoro-2-(((S)-1-Methylpyrrolidin-2-yl) Methoxy) Quinazolin-4-yl) Piperazin-2-yl) Acetonitrile]: 50 to 200 nM and 19.3 nM.
For `C=CC(=O)N1CC2C(=O)N(C)c3cnc4c(F)c(-c5c(O)cccc5F)c(Cl)cc4c3N2CC1C` (single isomer, unassigned) [Comparative Compound 2-2, reference compound], at KRAS^G12C/SOS1, the IC50 was over 1000 nM.
`C=CC(=O)N1CCN(c2nc(OC[C@@H]3C[C@@H](F)CN3C)nc3c(F)c(-c4ccc(F)c5sc(N)nc45)c(Cl)cc23)CC1` [Example 27]: the IC50 is under 50 nM at KRAS^G12C/SOS1 and under 1 nM in assay [1] (2D).
